Our source for the Activity and solubility values is ChEMBL document CHEMBL4602656, “Synthesis and evaluation of 4-(1,3,4-oxadiazol-2-yl)-benzenesulfonamides as potent carbonic anhydrase inhibitors” (Bioorg Med Chem Lett, 2020).

The source made the active and inactive calls. The calls are words filed in the database; no cut-off is given here.

One data set has as its system HEK-293T. Nature of the data set: Cytotoxicity against human HEK293T cells assessed as reduction in cell viability at 5 to 200 uM incubated for 48 hrs by MTS assay. The format is cell-based. (In general: Tetrazolium dyes change colour on reduction, which living cells bring about.)
The subject of the next data set is Mus musculus. Nature of the data set: Anti-hypoxia in mouse assessed as increase in mouse survival at 400 mg/kg, po administered for 3 days and observed upto day 3 after dosing of 1.5 hrs. The data set is classed as functional, organism-based.
Data set [1] in a line: Solubility of compound. The data set is classed as physicochemical.

In the case of `CC(=O)Nc1nnc(S(N)(=O)=O)s1` [ACETAZOLAMIDE], in the data set with HEK-293T, the Activity result is reported as “Non-Toxic”. In the data set on Mus musculus, the result was Active.

For `CN(C)c1ccc(-c2nnc(-c3ccc(S(N)(=O)=O)cc3)o2)cc1.CS(=O)(=O)O`, in the data set on HEK-293T, the Activity entry is listed as “Non-Toxic”. For the same compound, the result in the data set with Mus musculus was Active.

On to `Cc1ccc(-c2nnc(-c3ccc(S(N)(=O)=O)cc3)o2)c(C)c1`, for which the solubility entry in data set [1] is given as “Insoluble”. Further, in the data set on HEK-293T, the Activity result is recorded as “Non-Toxic”.

With `NS(=O)(=O)c1ccc(-c2nnc(-c3cccc(Cl)c3Cl)o2)cc1`, the solubility entry in data set [1] is reported as “Insoluble”. Moreover, the Activity entry in the data set on HEK-293T was “Non-Toxic”.
